The values that follow come from patent publication US10583206B2, “Radioactive probe for detecting hydrogen sulfide” (KYUNGPOOK NATIONAL UNIVERSITY INDUSTRY-ACADEMIC COOPERATION …, priority 2015, dated 2020).

Molecules are shown by their SMILES.

Experiment [1] in a line: Test of hydrogen sulfide detection over time (^64CuS formation, radio-TLC). It counts as physicochemical. Also noted: unit not given here. The note with it: 100 μM NaHS, 37° C. On the procedure:
To examine reactivity of the ^64Cu-labeled complex compound according to the present disclosure over time, the following experiment was performed.
A detailed experimental method is as follows.
About 45 μCi-50 μCi of ^64Cu-labeled complex compound (250 μL of triple distilled water) was mixed with 100 μM of NaHS solution ([…] of triple distilled water), and stirred at 37° C. for 15 minutes. Formation of copper sulfide (^64CuS) was quantified by using a radio-TLC scanner.

Experiment [2] in a line: Test of hydrogen sulfide detection sensitivity (% decomplexation with NaHS, radio-TLC). Format: physicochemical. The conditions noted are these: for % decomplexation: 37° C. for 15 minutes; for % decomplexation against 100 μM NaHS solution: Table 3. On the procedure:
To measure hydrogen sulfide detection sensitivity of the ^64Cu-labeled complex compound according to the present disclosure, the following experiment was performed.
About 45 μCi-55 μCi of ^64Cu-labeled complex compound (250 μL of triple distilled water) was mixed with various concentrations of NaHS solution (250 µL of triple distilled water), and stirred at 37° C. for 15 minutes (a total volume used in the reaction was equally 500 μL). After completion of the reaction, the resulting products were strongly stirred to mix appropriately.
Formation of copper sulfide (^64CuS) was confirmed by quantification of % decomplexation by using a radio-TLC scanner, and results are shown in the following Tables 2 and 3.

In experiment [3] the test system is Paw inflammation model. It counts as in vivo, Balb/c or ICR mice. The procedure:
(1) Paw Pain Inflammation Model
A small amount of CFA (complete Freund's adjuvant) or formalin was injected into only one paw (right) of the hind paws of Balb/c or ICR mice to establish inflammation models. 1 day after injection of the inflammation inducer, the mice were used in imaging or other in vivo experiments.
It is a known fact that inflamed sites show high concentrations of hydrogen sulfide.
Nuclear medicine imaging was measured by using an Inveon PET/CT system of Siemens Healthcare, and optical imaging was measured by using IVIS spectrum CT equipment. Cherenkov radiation emitted from ^64Cu was measured by using a highly sensitive CCD (charge-coupled device) camera.
Imaging was measured for 1 minute to 5 minutes, and a radiation dose was about 50 μCi to 2000 μCi, and photographs were variously taken as needed, such as immediately after first injection, at 1 hour, 4 hours, and 24 hours later.

Experiment [4] can be described thus: Hydrogen sulfide selectivity test: decomplexation by H2O2. Format: physicochemical. The conditions noted are these: H2O2 (100 µM); 37° C. for 15 minutes. The procedure:
(§1) In addition to hydrogen sulfide, many different anions, radicals, etc. exist in the body. Therefore, to examine selective reactivity of the ^64Cu-labeled complex compound according to the present disclosure for sulfide ions, the following experiment was performed.
(§2) About 45 μCi-55 μCi of the ^64Cu-labeled complex compound (250 μL of triple distilled water) was mixed with 100 μM of various anion solutions (250 μL of triple distilled water) including biothiol, and stirred at 37° C. for 15 minutes.
(§3) Formation of copper sulfide (^64CuS) was quantified by using a radio-TLC scanner.
(§4) Various biothiol or salt solutions were prepared by dissolving the compounds in triple distilled water.
(§5) In Table, concentrations of all biothiols and other competitive materials are 100 μM. Further, specific concentrations of biothiols, anions, and oxidants used in Table are as follows: [L-Cys (1 mM); L-Hcys (10 mM); GSH (10 mM); DL-dithiothretitol (DTT, 100 μM); L-ascorbic acid (L-AsA, 10 mM); 2-mercaptoethanol (2-ME, 10 mM); NaCl (10 mm); KI (1 mM); Na2S2O3 (1 mM); Na2S2O5 (1 mM); NaOAc (1 mM); H2O2 ([…]); NaClO4 (100 μM); NaHCO3 (100 μM); NaNO2 ([…]); NaN3 (100 μM); ATB 337 (100 μM); diallyl trisulphide (100 μM)].

Experiment [5] in a line: Hydrogen sulfide selectivity test: decomplexation by NaClO4. Format: physicochemical. The conditions noted are these: NaClO4 (100 μM); 37° C. for 15 minutes. On the procedure:
as §1, §2, §3, §4, §5

The nature of experiment [6]: Hydrogen sulfide selectivity test: decomplexation by NaNO2. Format: physicochemical. The note with it: NaNO2 (100 µM); 37° C. for 15 minutes. The procedure: as §1, §2, §3, §4, §5
A short description of experiment [7]: Hydrogen sulfide selectivity test: decomplexation by DTT. Format: physicochemical. The conditions noted are these: DL-dithiothretitol (DTT, 100 μM); 37° C. for 15 minutes. The procedure:
as §1, §2, §3, §4, §5

A short description of experiment [8]: Hydrogen sulfide selectivity test: decomplexation by ME. It counts as physicochemical. The conditions noted are these: 2-mercaptoethanol; 100 μM or (2-ME, 10 mM); 37° C. for 15 minutes. The procedure:
as §1, §2, §3, §4, §5

Experiment [9] can be described thus: Hydrogen sulfide selectivity test: decomplexation by Hcys. The conditions noted are these: 100 μM or L-Hcys (10 mM), 37° C. for 15 minutes. Format: physicochemical. On the procedure:
as §1, §2, §3, §4, §5

A short description of experiment [10]: Hydrogen sulfide selectivity test: decomplexation by NaCl. The note with it: 100 μM or NaCl (10 mm), 37° C. for 15 minutes. Format: physicochemical. The procedure: as §1, §2, §3, §4, §5
Experiment [11] can be described thus: Hydrogen sulfide selectivity test: decomplexation by L-AsA. It counts as physicochemical. The note with it: L-ascorbic acid; 100 μM or (L-AsA, 10 mM); 37° C. for 15 minutes. The procedure:
as §1, §2, §3, §4, §5

Experiment [12] is described as follows: Hydrogen sulfide selectivity test: decomplexation by NaN3. It counts as physicochemical. The conditions noted are these: NaN3 (100 μM); 37° C. for 15 minutes. The procedure: as §1, §2, §3, §4, §5
A short description of experiment [13]: Hydrogen sulfide selectivity test: decomplexation by ATB 337. Format: physicochemical. The note with it: ATB 337 (100 μM); 37° C. for 15 minutes. On the procedure:
as §1, §2, §3, §4, §5

Experiment [14] is described as follows: Hydrogen sulfide selectivity test: decomplexation by NaOAc. Format: physicochemical. The note with it: 100 μM or (1 mM), 37° C. for 15 minutes. The procedure: as §1, §2, §3, §4, §5
A short description of experiment [15]: Hydrogen sulfide selectivity test: decomplexation by GSH. Format: physicochemical. The note with it: 100 μM or GSH (10 mM), 37° C. for 15 minutes. On the procedure:
as §1, §2, §3, §4, §5

Experiment [16] in a line: Hydrogen sulfide selectivity test: decomplexation by Na2S2O5. It counts as physicochemical. The note with it: 100 μM or (1 mM), 37° C. for 15 minutes. On the procedure: as §1, §2, §3, §4, §5
The nature of experiment [17]: Hydrogen sulfide selectivity test: decomplexation by Kl. Format: physicochemical. The conditions noted are these: 100 μM or KI (1 mM), 37° C. for 15 minutes. The procedure:
as §1, §2, §3, §4, §5

Experiment [18] is described as follows: Hydrogen sulfide selectivity test: decomplexation by DAT (diallyl trisulphide). Format: physicochemical. The note with it: DAT = diallyl trisulphide (100 μM); 37° C. for 15 minutes. The procedure: as §1, §2, §3, §4, §5
Experiment [19] in a line: Hydrogen sulfide selectivity test: decomplexation by Cys. It counts as physicochemical. The conditions noted are these: 100 μM or L-Cys (1 mM), 37° C. for 15 minutes. On the procedure: as §1, §2, §3, §4, §5
Experiment [20] is described as follows: Hydrogen sulfide selectivity test: decomplexation by Na2S2O3. It counts as physicochemical. The note with it: 100 μM or (1 mM), 37° C. for 15 minutes. The procedure:
as §1, §2, §3, §4, §5

The nature of experiment [21]: Hydrogen sulfide selectivity test: decomplexation by NaHCO3. Format: physicochemical. The note with it: NaHCO3 (100 μM); 37° C. for 15 minutes. On the procedure:
as §1, §2, §3, §4, §5

Experiment [22] deals with Myocardial infarction model. As to the kind of experiment: Imaging study in myocardial infarction model (PET). The conditions noted are these: PET imaging after injection. It counts as in vivo, Sprague-Dawley rats. An excerpt: (2) Myocardial Infarction Model
A myocardial infarction model was established by using Sprague-Dawley rats (12-week-old or older, about 250 g). 2 days later after induction of myocardial infarction by occlusion of the coronary arteries in the heart, the rats were used in imaging tests. It is a known fact that myocardial infarction sites show high concentrations of hydrogen sulfide.
It is known that myocardial infarction sites show high concentrations of hydrogen sulfide. Thus, after induction of myocardial infarction by coronary artery occlusion in rats, 50 μCi-900 μCi of the ^64Cu-labeled complex compound was injected via the tails of the rats, and uptake in the myocardial infarction site was examined over time by PET imaging.
36 hours after establishment of the myocardial infarction model, 730 μCi of the radioisotope-labeled complex compound of the present disclosure was injected and nuclear medicine imaging was performed. 2 days later, […] of FDG was injected into the same rat, and then FDG-PET images were obtained. Results are shown in FIGS. 15 to 17 (in the nuclear medicine imaging, the upper image represents a transverse image, and the lower image represents a coronal image).

As to `[64Cu+2].c1ccc2c(CN3CCNCCNCCNCC3)c3ccccc3cc2c1` [Example 2], the “Formation of copper sulfide (^64CuS) over time” value in experiment [1] (10 sec) was 21; in [1] (30 sec) it was 22; in experiment [1] (60 sec), 33; in experiment [1] (5 min), 82; in [1] (10 min) it was 100; in experiment [1] (15 min) it was 100. The “% decomplexation” value in experiment [2] (NaHS 0 μM) was 0%; in experiment [2] (NaHS 1 μM), 0%; in experiment [2] (NaHS 10 μM), 0%; in [2] (NaHS 15 μM), 0%; in experiment [2] (NaHS 20 μM), 15%; in experiment [2] (NaHS 50 μM) it was 56%. Further, the “% decomplexation” value in experiment [2] (NaHS 100 μM) was determined as 100%. For the same compound, the “selective uptake in inflamed sites” value in experiment [3] (optical imaging and nuclear medicine imaging) is given as “selective uptake”.
In the case of `CC1CC[N]2C3CCCCC3[N]3C(C)CC[N]4C5CCCCC5[N]1[64Cu]423` (stereo not shown) [Example 9], the “uptake in inflamed paw versus opposite paw” value in experiment [3] (optical and nuclear medicine imaging performed 2 hours later) is “higher uptakes”.
`C1C[SH]2CC[SH]3CC[SH]4CC[N]1[64Cu]243` (stereo not shown) [Example 23]: the “Decomplexation [%]” value was determined as 0.3% in experiment [4]; 0.8% in experiment [5]; 0.6% in experiment [6]; 0.4% in experiment [7]; 0.5% in [8]; 0.4% in experiment [9]. For the same compound, the “Decomplexation [%]” value is listed as 0.5% in experiment [10]; 0.4% in experiment [11]; 0.8% in [12]; 0.6% in [13]; 0.3% in experiment [14]; 0.7% in experiment [15]. In addition, the “Decomplexation [%]” value in experiment [16] came out at 0.6%; in [17], 0.2%; in [18], 0.4%; in experiment [19], 0.5%; in experiment [20] it was 0.2%; in experiment [21], 0.1%. Also, the “% decomplexation against 100 μM NaHS solution” value in [2] is recorded as 78.3 ± 2.6%. The “% decomplexation” value in experiment [2] (NaHS 0 μM) was determined as 0%; in [2] (NaHS 1 μM) it was 0%; in [2] (NaHS 10 μM), 0%; in experiment [2] (NaHS 15 μM), 36.4%; in experiment [2] (NaHS 20 μM) it was 49.4%; in experiment [2] (NaHS 50 μM), 67.7%. In experiment [2] (NaHS 100 μM), the “% decomplexation” value is 78.2%.
Turning to `CN1CCCNCCNCCNCC1.[64Cu+2]` [Example 24], the “% decomplexation against 100 μM NaHS solution” value in [2] was 0%.
With `C1CNCCN2CCCNCCN(C1)CCC2` [Example 25], the “% decomplexation against 100 μM NaHS solution” value in [2] worked out at 0%.
The same measure, in the same setting: the result for `C/C(=N\O)[C@@H](C)NCC(C)(C)CN[C@H](C)/C(C)=N/O` [Example 26] reads 62.43 ± 0.87%; that for `c1ccc(CNCc2ccccn2)nc1` [Example 33], 26.6%.
As to `OC[C@H]1O[C@@H](O)[C@H]([18F])[C@@H](O)[C@@H]1O` [FDG, reference compound], the “uptake / visualisation of the myocardial infarction site” value in [22] is reported as “uptake did not occur in the myocardial infarction site”.
